Tests used:
rat mGluR5 receptor = biological target: T1, rat mGluR5 receptor (Rattus norvegicus, UniProt P31424); assay: [3H]-MPEP displacement binding assay, HEK-293 cell membranes expressing rat mGluR5; conditions: [3H]-MPEP displacement, rat mGluR5; read-out: Median Ki
T1 construct: expressed in transfected cells; host or cells: HEK-293
Outline: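 Membranes from HEK-293 cells expressing rat mGluR5 (12-25 μg protein), incubated 60 min at room temperature with 4 nM [3H]-MPEP in 50 mM Tris pH 7.5, then filtered. Nonspecific binding defined with 10 μM MPEP.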

mGluR5 = mGluR5 (Rattus norvegicus, UniProt P31424); assay: IC50 column under 'Biological Activity' (assay not identified in the shown text; not the binding Ki)
mGluR5, sequence (P31424 21-1203): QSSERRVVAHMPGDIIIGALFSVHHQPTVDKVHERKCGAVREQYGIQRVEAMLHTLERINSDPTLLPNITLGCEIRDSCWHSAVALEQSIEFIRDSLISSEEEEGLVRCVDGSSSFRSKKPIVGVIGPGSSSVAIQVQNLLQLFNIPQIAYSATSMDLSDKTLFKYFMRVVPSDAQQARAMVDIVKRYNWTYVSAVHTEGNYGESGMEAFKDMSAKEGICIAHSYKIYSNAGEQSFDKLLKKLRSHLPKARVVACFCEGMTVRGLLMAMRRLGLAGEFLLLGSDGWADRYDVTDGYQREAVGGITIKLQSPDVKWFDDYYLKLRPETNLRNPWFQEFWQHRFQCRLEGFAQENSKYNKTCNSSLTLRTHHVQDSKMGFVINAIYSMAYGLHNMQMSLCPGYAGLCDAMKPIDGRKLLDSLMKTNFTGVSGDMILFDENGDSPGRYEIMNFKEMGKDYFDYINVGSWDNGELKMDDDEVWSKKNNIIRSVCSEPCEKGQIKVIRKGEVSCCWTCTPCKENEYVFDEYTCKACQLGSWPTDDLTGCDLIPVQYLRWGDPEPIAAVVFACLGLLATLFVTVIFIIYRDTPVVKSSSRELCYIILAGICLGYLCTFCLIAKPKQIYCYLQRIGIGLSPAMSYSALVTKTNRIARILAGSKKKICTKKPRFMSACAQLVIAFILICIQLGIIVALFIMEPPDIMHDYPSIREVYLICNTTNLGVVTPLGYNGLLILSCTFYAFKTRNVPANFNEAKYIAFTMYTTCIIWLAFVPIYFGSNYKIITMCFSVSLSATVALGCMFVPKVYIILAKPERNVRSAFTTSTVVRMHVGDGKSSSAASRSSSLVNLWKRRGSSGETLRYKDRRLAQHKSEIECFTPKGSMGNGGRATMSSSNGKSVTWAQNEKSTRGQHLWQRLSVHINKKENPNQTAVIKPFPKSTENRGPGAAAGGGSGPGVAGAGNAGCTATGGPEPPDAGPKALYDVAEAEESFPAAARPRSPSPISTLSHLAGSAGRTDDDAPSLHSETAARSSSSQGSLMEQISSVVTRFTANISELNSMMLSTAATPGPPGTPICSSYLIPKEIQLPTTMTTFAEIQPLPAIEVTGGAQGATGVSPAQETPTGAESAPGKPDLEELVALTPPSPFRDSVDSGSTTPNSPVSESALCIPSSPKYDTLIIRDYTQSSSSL

T1 sequence (P31424 21-1203): as above

Row | SMILES | Ki (rat mGluR5 receptor) [nM] | IC50 (mGluR5) [nM]
1 | COc1ccc(C(=O)N2CCN(c3ncc(Cl)cc3Cl)CC2)cc1C#Cc1ccccn1 [Compound 185, 1-(3,5-dichloropyridin-2-yl)-4-[4-methoxy-3-(pyridin-2-ylethynyl)benzoyl]piperazine] | 47 | 43
2 | COc1ccc(C(=O)N2CCN(c3ncccc3Cl)CC2)cc1C#Cc1ccccn1 [Compound 186, 1-(3-chloropyridin-2-yl)-4-[4-methoxy-3-(pyridin-2-ylethynyl)benzoyl]piperazine] | 19 | 37
3 | COc1ccc(C(=O)N2CCN(c3cccc(C(F)(F)F)c3)CC2)cc1C#Cc1ccccn1 [Compound 187, 1-[4-methoxy-3-(pyridin-2-ylethynyl)benzoyl]-4-[3-(trifluoromethyl)phenyl]piperazine] | 5 | 834
4 | COc1ccc(C(=O)N2CCN(c3ccc(Cl)cn3)CC2)cc1C#Cc1ccccn1 [Compound 188, 1-(5-chloropyridin-2-yl)-4-[4-methoxy-3-(pyridin-2-ylethynyl)benzoyl]piperazine] | 7 | 86
5 | COc1ccc(C(=O)N2CCN(c3cccc(Cl)c3)CC2)cc1C#Cc1ccccn1 [Compound 189, 1-(3-chlorophenyl)-4-[4-methoxy-3-(pyridin-2-ylethynyl)benzoyl]piperazine] | 4 | 148
6 | COc1ccc(C(=O)N2CCN(c3ncc(C(F)(F)F)cc3Cl)CC2)cc1C#Cc1ccccn1 [Compound 190, 1-[3-chloro-5-(trifluoromethyl)pyridin-2-yl]-4-[4-methoxy-3-(pyridin-2-ylethynyl)benzoyl]piperazine] | 413 | 408
7 | COc1ccc(C(=O)N2CCN(c3cc(C)ccn3)CC2)cc1C#Cc1ccccn1 [Compound 191, 1-[4-methoxy-3-(pyridin-2-ylethynyl)benzoyl]-4-(4-methylpyridin-2-yl)piperazine] | 19 | 31
8 | COc1ccc(C(=O)N2CCN(c3nc(C)cc(C)n3)CC2)cc1C#Cc1ccccn1 [Compound 192, 2-{4-[4-methoxy-3-(pyridin-2-ylethynyl)benzoyl]piperazin-1-yl}-4,6-dimethylpyrimidine] | 45 | 109
9 | COc1ccc(C(=O)N2CCN(c3nccnc3C#N)CC2)cc1C#Cc1ccccn1 [Compound 193, 3-{4-[4-methoxy-3-(pyridin-2-ylethynyl)benzoyl]piperazin-1-yl}pyrazine-2-carbonitrile] | 34 | 46
10 | COc1ccc(C(=O)N2CCN(c3nccc(C(F)(F)F)n3)CC2)cc1C#Cc1ccccn1 [Compound 194, 2-{4-[4-methoxy-3-(pyridin-2-ylethynyl)benzoyl]piperazin-1-yl}-4-(trifluoromethyl)pyrimidine] | 4 | 78
11 | COc1ccc(C(=O)N2CCN(c3cccc(O)c3)CC2)cc1C#Cc1ccccn1 [Compound 195, 3-{4-[4-methoxy-3-(pyridin-2-ylethynyl)benzoyl]piperazin-1-yl}phenol] | 26 | 702
12 | COc1ccc(C(=O)N2CCN(c3cccc(C)c3)CC2)cc1C#Cc1ccccn1 [Compound 196, 1-[4-methoxy-3-(pyridin-2-ylethynyl)benzoyl]-4-(3-methylphenyl)piperazine] | 16 | 65
13 | COc1ccc(C(=O)N2CCN(c3ncc(Br)c(OC)n3)CC2)cc1C#Cc1ccccn1 [Compound 197, 5-bromo-4-methoxy-2-{4-[4-methoxy-3-(pyridin-2-ylethynyl)benzoyl]piperazin-1-yl}pyrimidine] | 12 | 56
14 | COc1ccc(C(=O)N2C[C@H]3C[C@H]2CN3c2ccc(Cl)cc2)cc1C#Cc1ccccn1 [Compound 199, (1R,4S)-2-(4-chlorophenyl)-5-[4-methoxy-3-(pyridin-2-ylethynyl)benzoyl]-2,5-diazabicyclo[2.2.1]heptane] | 76 | > 1000
15 | COc1ccnc(N2CCN(C(=O)c3ccc(OC)c(C#Cc4ccccn4)c3)CC2)n1 [Compound 200, 4-methoxy-2-{4-[4-methoxy-3-(pyridin-2-ylethynyl)benzoyl]piperazin-1-yl}pyrimidine] | 21 | 24
16 | COc1ccc(C(=O)N2CCN(c3nsc4ccccc34)CC2)cc1C#Cc1ccccn1 [Compound 201, 3-{4-[4-methoxy-3-(pyridin-2-ylethynyl)benzoyl]piperazin-1-yl}-1,2-benzisothiazole] | 3 | 24
17 | COc1ccc(C(=O)N2CCN(c3cncc(C)n3)CC2)cc1C#Cc1ccccn1 [Compound 204, 2-{4-[4-methoxy-3-(pyridin-2-ylethynyl)benzoyl]piperazin-1-yl}-6-methylpyrazine] | 29 | 132
18 | COc1ccc(C(=O)N2CCCN(c3ccccn3)CC2)cc1C#Cc1ccccn1 [Compound 205, 1-[4-methoxy-3-(pyridin-2-ylethynyl)benzoyl]-4-pyridin-2-yl-1,4-diazepane] | 131 | > 1000

Row | SMILES | Ki (rat mGluR5 receptor) [nM] | IC50 (mGluR5) [nM]
19 | COc1ccc(C(=O)N2CCN(c3nnc(C(F)(F)F)s3)CC2)cc1C#Cc1ccccn1 [Compound 206, 1-[4-methoxy-3-(pyridin-2-ylethynyl)benzoyl]-4-[5-(trifluoromethyl)-1,3,4-thiadiazol-2-yl]piperazine] | 66 | 295
20 | COc1ccc(C(=O)N2C[C@H]3C[C@H]2CN3c2cccc(F)c2)cc1C#Cc1ccccn1 [Compound 207, (1R,4S)-2-(3-fluorophenyl)-5-[4-methoxy-3-(pyridin-2-ylethynyl)benzoyl]-2,5-diazabicyclo[2.2.1]heptane] | 19 | 306
21 | COc1ccc(C(=O)N2CCN(c3ncccc3C)CC2)cc1C#Cc1ccccn1 [Compound 208, 1-[4-methoxy-3-(pyridin-2-ylethynyl)benzoyl]-4-(3-methylpyridin-2-yl)piperazine] | 21 | 141
22 | COc1cccc(N2CCN(C(=O)c3ccc(OC)c(C#Cc4ccccn4)c3)CC2)n1 [Compound 213, 1-(6-methoxypyridin-2-yl)-4-[4-methoxy-3-(pyridin-2-ylethynyl)benzoyl]piperazine] | 11 | 86
23 | COc1ccc(C(=O)N2CCN(c3ccccc3Cl)CC2)cc1C#Cc1ccccn1 [Compound 216, 1-(2-chlorophenyl)-4-[4-methoxy-3-(pyridin-2-ylethynyl)benzoyl]piperazine] | 107 | > 1000
24 | COc1ccc(C(=O)N2CCN(c3ccc(Cl)cc3)CC2)cc1C#Cc1ccccn1 [Compound 217, 1-(4-chlorophenyl)-4-[4-methoxy-3-(pyridin-2-ylethynyl)benzoyl]piperazine] | 27 | 336
25 | COc1ccc(C(=O)N2CCN(c3ccc(Cl)c(Cl)c3)CC2)cc1C#Cc1ccccn1 [Compound 218, 1-(3,4-dichlorophenyl)-4-[4-methoxy-3-(pyridin-2-ylethynyl)benzoyl]piperazine] | 48 | > 1000
26 | COc1ccc(C(=O)N2CCN(c3cccc(C)c3C)CC2)cc1C#Cc1ccccn1 [Compound 219, 1-(2,3-dimethylphenyl)-4-[4-methoxy-3-(pyridin-2-ylethynyl)benzoyl]piperazine] | 168 | > 1000
27 | COc1ccc(C(=O)N2CCN(c3cc(C)nc(C(C)C)n3)CC2)cc1C#Cc1ccccn1 [Compound 220, 2-isopropyl-4-{4-[4-methoxy-3-(pyridin-2-ylethynyl)benzoyl]piperazin-1-yl}-6-methylpyrimidine] | 89 | > 1000
28 | COc1ccc(C(=O)N2CCN(c3ccccc3C)CC2)cc1C#Cc1ccccn1 [Compound 221, 1-[4-methoxy-3-(pyridin-2-ylethynyl)benzoyl]-4-(2-methylphenyl)piperazine] | 100 | > 1000
29 | COc1ccc(C(=O)N2CCN(c3ccc(C)cc3)CC2)cc1C#Cc1ccccn1 [Compound 222, 1-[4-methoxy-3-(pyridin-2-ylethynyl)benzoyl]-4-(4-methylphenyl)piperazine] | 74 | > 1000
30 | COc1ccc(C(=O)N2CCN(c3cccc(F)c3)CC2)cc1C#Cc1ccccn1 [Compound 223, 1-(3-fluorophenyl)-4-[4-methoxy-3-(pyridin-2-ylethynyl)benzoyl]piperazine] | 10 | 103
31 | COc1ccc(C(=O)N2CCN(S(=O)(=O)c3ccc(Cl)s3)CC2)cc1C#Cc1ccccn1 [Compound 225, 1-[(5-chloro-2-thienyl)sulfonyl]-4-[4-methoxy-3-(pyridin-2-ylethynyl)benzoyl]piperazine] | 51 | > 1000
32 | COc1ccc(C(=O)N2C[C@@H]3C[C@@H]2CN3c2ccc(C)cc2)cc1C#Cc1ccccn1 [Compound 226, (1R,4S)-2-[4-methoxy-3-(pyridin-2-ylethynyl)benzoyl]-5-(4-methylphenyl)-2,5-diazabicyclo[2.2.1]heptane] | 277 | > 1000
33 | COc1ccc(C(=O)N2C[C@@H]3C[C@@H]2CN3c2ccc(F)cc2)cc1C#Cc1ccccn1 [Compound 227, (1S,4R)-2-(4-fluorophenyl)-5-[4-methoxy-3-(pyridin-2-ylethynyl)benzoyl]-2,5-diazabicyclo[2.2.1]heptane] | 71 | > 1000
34 | COc1ccc(C(=O)N2CCN(c3ccc([N+](=O)[O-])cn3)CC2)cc1C#Cc1ccccn1 [Compound 229, 1-[4-methoxy-3-(pyridin-2-ylethynyl)benzoyl]-4-(5-nitropyridin-2-yl)piperazine] | 56 | > 1000
35 | COc1ccc(C(=O)N2CCN(c3ccc(F)cc3)CC2)cc1C#Cc1ccccn1 [Compound 231, 1-(4-fluorophenyl)-4-[4-methoxy-3-(pyridin-2-ylethynyl)benzoyl]piperazine] | 23 | 244
